# Data taken from article PMC12446476 (Nature Communications, 2025).
# Like-named read-outs stand apart in the source and are kept apart here.
# System: N. gonorrhoeae
# Assay: MIC determination, agar dilution (CLSI)
# Type: cell-based, Neisseria gonorrhoeae
# Settings: for MIC: Neisseria gonorrhoeae
# Text: The 2024 WHO N. gonorrhoeae reference strains were used for quality control. Only whole MIC doubling dilutions are reported. Clinical breakpoints or the epidemiological cutoff (ECOFF, to indicate azithromycin resistance) from EUCAST (v14.0, https://www.eucast.org/clinical_breakpoints) were used to classify isolates as antimicrobial susceptible or resistant. […] Two times the standard inoculum defined by CLSI was used to establish consistent growth in untreated control samples for some strains. In vitro time-kill assays were performed according to CLSI guidelines[65] using Columbia Broth (BD Difco) supplemented with 1% IsoVitaleX Enrichment (BD). Viable bacterial counts were generated by plating 10-fold serially diluted samples on GC agar plates containing 1% IsoVitaleX Enrichment (BD).
smiles,measurement,setting,value
"CO/N=C(\C(=O)N[C@@H]1C(=O)N2C(C(=O)O)=C(CSc3nc(=O)c(=O)[nH]n3C)CS[C@H]12)c1csc(N)n1 [Ceftriaxone, reference compound]",susceptibility of all isolates,"100 contemporary clinical N. gonorrhoeae isolates, EUCAST",susceptible
same,MIC,"ATCC700825, ATCC 700825, mode of multiple measures, read-out: MIC",0.002 µg/mL
same,MIC,"WHO H, agar dilution, read-out: MIC",0.25 µg/mL
same,MIC,"WHO K, agar dilution, read-out: MIC",0.06 µg/mL
same,MIC,"WHO L, agar dilution, read-out: MIC",0.25 µg/mL
same,MIC,"WHO Q, agar dilution, read-out: MIC",0.5 µg/mL
same,MIC,"WHO R, agar dilution, read-out: MIC",0.5 µg/mL
same,MIC,"WHO S2, agar dilution, read-out: MIC",< 0.008 µg/mL
same,MIC,"WHO V, agar dilution, read-out: MIC",0.06 µg/mL
same,MIC,"WHO X-07 (CIP-R, CRO-R), mode of multiple measures, read-out: MIC",2 µg/mL
same,MIC,"WHO Y, agar dilution",1 µg/mL
same,"AMR phenotype (susceptibility category, EUCAST)",WHO F,S
same,"AMR phenotype (susceptibility category, EUCAST)",WHO H,R
same,"AMR phenotype (susceptibility category, EUCAST)",WHO K,S
same,"AMR phenotype (susceptibility category, EUCAST)",WHO L,R
same,"AMR phenotype (susceptibility category, EUCAST)",WHO M,S
same,"AMR phenotype (susceptibility category, EUCAST)",WHO O,S
same,"AMR phenotype (susceptibility category, EUCAST)",WHO P,S
same,"AMR phenotype (susceptibility category, EUCAST)",WHO Q,R
same,"AMR phenotype (susceptibility category, EUCAST)",WHO R,R
same,"AMR phenotype (susceptibility category, EUCAST)",WHO S2,S
same,"AMR phenotype (susceptibility category, EUCAST)",WHO U,S
same,"AMR phenotype (susceptibility category, EUCAST)",WHO V,S
same,"AMR phenotype (susceptibility category, EUCAST)",WHO X,R
same,"AMR phenotype (susceptibility category, EUCAST)",WHO Y,R
same,"AMR phenotype (susceptibility category, EUCAST)",WHO Z,R
